Measured values: patent US9670227B2, “Thienopyrimidine derivatives, a process for their preparation and pharmaceutical compositions containing them” (LES LABORATOIRES SERVIER, priority 2013, dated 2017)

Biological target: Mcl-1 protein (UniProtKB primary accession number: Q07820) (Homo sapiens, UniProt Q07820)
Assay: Inhibition of Mcl-1 by fluorescence polarisation, Method 1
Assay type: binding
Settings: @ 10 uM test compound
Summary of the method: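 An 11-point DMSO dilution of compound is mixed with buffer (10 mM HEPES, 150 mM NaCl, 0.05% Tween 20, pH 7.4) carrying 1 nM fluorescein-labelled ligand and 5 nM Mcl-1, final concentrations. Displacement is monitored by fluorescence polarisation.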

Mcl-1 protein, sequence (Q07820 whole entry): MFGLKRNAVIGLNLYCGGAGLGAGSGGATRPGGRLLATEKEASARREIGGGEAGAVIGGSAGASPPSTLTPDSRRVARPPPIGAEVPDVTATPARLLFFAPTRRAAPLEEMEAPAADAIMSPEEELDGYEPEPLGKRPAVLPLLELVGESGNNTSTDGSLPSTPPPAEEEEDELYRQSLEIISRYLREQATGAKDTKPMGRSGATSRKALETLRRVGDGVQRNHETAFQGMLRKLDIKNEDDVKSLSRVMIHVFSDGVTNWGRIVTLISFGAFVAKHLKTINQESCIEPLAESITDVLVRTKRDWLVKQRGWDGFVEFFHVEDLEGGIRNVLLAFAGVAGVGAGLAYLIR

Which “percentage fluorescence polarisation inhibition (Mcl-1 FP), partial inhibitors” value does the source give for `CCc1c(-c2c(-c3ccco3)sc3ncnc(O[C@H](Cc4ccccc4OC)C(=O)O)c23)ccc(OCCN2CCN(C)CC2)c1Cl` [Example 336, (2R)-2-{[(5Ra)-5-{3-chloro-2-ethyl-4-[2-(4-methylpiperazin-1-yl)ethoxy]phenyl}-6-(furan-2-yl)thieno[2,3-d]pyrimidin-4-yl]oxy}-3-(2-methoxyphenyl)propanoic acid] here?
The value was 43.2% @ 10 uM.

How did the “percentage fluorescence polarisation inhibition (Mcl-1 FP), partial inhibitors” value turn out when `Cc1c(-c2c(-c3ccco3)sc3ncnc(O[C@@H](C(=O)O)c4ccccc4)c23)ccc(OCCN2CCN(C)CC2)c1Cl` [Example 339, (2R)-{[(5Ra)-5-{3-chloro-2-methyl-4-[2-(4-methylpiperazin-1-yl)ethoxy]phenyl}-6-(furan-2-yl)thieno[2,3-d]pyrimidin-4-yl]oxy}(phenyl)ethanoic acid] was run?
Its value is 18.85% @ 10 uM.

Same assay, conditions: fluorescence polarisation test; Method 2 values are underlined in the patent (underlining not visible here); read-out: IC50 (M) Mcl-1 FP

Which IC50 does the source give for `COc1ccccc1CC(Oc1ncnc2sc(-c3ccco3)c(-c3ccc(OC(=O)CN4CCN(C)CC4)c(Cl)c3C)c12)C(=O)O` [Example 332, (2R)-2-{[(5Sa)-5-(3-chloro-2-methyl-4-{[(4-methylpiperazin-1-yl)acetyl]oxy}phenyl)-6-(furan-2-yl)thieno[2,3-d]pyrimidin-4-yl]oxy}-3-(2-methoxyphenyl)propanoic acid] here?
Its IC50 is 1.3e-08 M.

With `Cc1c(-c2c(-c3ccco3)sc3ncnc(OC(C(=O)O)c4ccccc4)c23)ccc(OCCN2CCN(C)CC2)c1Cl` [Example 340, (2R)-{[(5Sa)-5-{3-chloro-2-methyl-4-[2-(4-methylpiperazin-1-yl)ethoxy]phenyl}-6-(furan-2-yl)thieno[2,3-d]pyrimidin-4-yl]oxy}(phenyl)ethanoic acid] as the compound, how does the IC50 read?
The IC50 was 6.7e-07 M.

For `Cc1c(-c2c(-c3ccco3)sc3ncnc(OC(Cc4cccc(F)c4F)C(=O)O)c23)ccc(OCCN2CCN(C)CC2)c1Cl` [Example 350, (2R)-2-{[(5Sa)-5-{3-chloro-2-methyl-4-[2-(4-methylpiperazin-1-yl)ethoxy]phenyl}-6-(furan-2-yl)thieno[2,3-d]pyrimidin-4-yl]oxy}-3-(2,3-difluorophenyl)propanoic acid], which IC50 is on record?
The IC50 was 2.8e-08 M.

`Cc1c(-c2c(-c3ccco3)sc3ncnc(O[C@H](Cc4ccccc4C(F)(F)F)C(=O)O)c23)ccc(OCCN2CCN(C)CC2)c1Cl` [Example 353, (2R)-2-{[(5Sa)-5-{3-chloro-2-methyl-4-[2-(4-methylpiperazin-1-yl)ethoxy]phenyl}-6-(furan-2-yl)thieno[2,3-d]pyrimidin-4-yl]oxy}-3-[2-(trifluoromethyl)phenyl]propanoic acid] was tested. Which IC50 did it give?
Its IC50 is 2.8e-08 M.

How did the IC50 turn out when `Cc1c(-c2c(-c3ccco3)sc3ncnc(OC(Cc4ccccc4CN)C(=O)O)c23)ccc(OCCN2CCN(C)CC2)c1Cl` [Example 355, (2R)-3-[2-(aminomethyl)phenyl]-2-{[(5Sa)-5-{3-chloro-2-methyl-4-[2-(4-methylpiperazin-1-yl)ethoxy]phenyl}-6-(furan-2-yl)thieno[2,3-d]pyrimidin-4-yl]oxy}propanoic acid] was run?
Its IC50 is 3e-08 M.

How did the IC50 turn out when `CC(=O)NCc1ccccc1CC(Oc1ncnc2sc(-c3ccco3)c(-c3ccc(OCCN4CCN(C)CC4)c(Cl)c3C)c12)C(=O)O` [Example 356, (2R)-3-{2-[(acetylamino)methyl]phenyl}-2-{[(5Sa)-5-{3-chloro-2-methyl-4-[2-(4-methylpiperazin-1-yl)ethoxy]phenyl}-6-(furan-2-yl)thieno[2,3-d]pyrimidin-4-yl]oxy}propanoic acid] was run?
Its IC50 is 1.1e-08 M.

How did the IC50 turn out when `Cc1c(-c2c(-c3ccco3)sc3ncnc(OC(Cc4ccccc4SCC(F)(F)F)C(=O)O)c23)ccc(OCCN2CCN(C)CC2)c1Cl` [Example 361, (2S)-2-{[(5Ra)-5-{3-chloro-2-methyl-4-[2-(4-methylpiperazin-1-yl)ethoxy]phenyl}-6-(furan-2-yl)thieno[2,3-d]pyrimidin-4-yl]oxy}-3-{2-[(2,2,2-trifluoroethyl)sulfanyl]phenyl}propanoic acid] was run?
Its IC50 is 7.1e-07 M.

For `COc1ccccc1CC(Oc1ncnc2sc(-c3ccc(Cl)o3)c(-c3ccc(OCCN4CCN(C)CC4)c(Cl)c3C)c12)C(=O)O` [Example 363, (2R)-2-{[6-(5-chlorofuran-2-yl)-(5Sa)-5-{3-chloro-2-methyl-4-[2-(4-methylpiperazin-1-yl)ethoxy]phenyl}thieno[2,3-d]pyrimidin-4-yl]oxy}-3-(2-methoxyphenyl)propanoic acid], which IC50 is on record?
The IC50 was 7.7e-09 M.

With `CCc1sc2ncnc(OC(Cc3ccccc3)C(=O)O)c2c1-c1ccc(OCC(=O)N2CCN(C)CC2)c(Cl)c1C` [Example 392, (2R)-2-[((5Sa)-5-{3-chloro-2-methyl-4-[2-(4-methylpiperazin-1-yl)-2-oxoethoxy]phenyl}-6-ethylthieno[2,3-d]pyrimidin-4-yl)oxy]-3-phenylpropanoic acid] as the compound, how does the IC50 read?
Its IC50 is 3e-08 M.

Same assay, conditions: fluorescence polarisation; Method 1, or Method 2; read-out: IC50 (M) Mcl-1 FP

`CCc1sc2ncnc(OC(Cc3ccccc3)C(=O)O)c2c1-c1ccc(OCc2ccccc2)c(Cl)c1C` [Example 394, (2R)-2-({(5Sa)-5-[4-(benzyloxy)-3-chloro-2-methylphenyl]-6-ethylthieno[2,3-d]pyrimidin-4-yl}oxy)-3-phenylpropanoic acid] was tested. Which IC50 did it give?
Its IC50 is 3.4e-08 M.

How did the IC50 turn out when `CCc1sc2ncnc(OC(Cc3ccccc3)C(=O)O)c2c1-c1ccc(OCc2ccncc2)c(Cl)c1C` [Example 395, (2R)-2-({(5Sa)-5-[3-chloro-2-methyl-4-(pyridin-4-ylmethoxy)phenyl]-6-ethylthieno[2,3-d]pyrimidin-4-yl}oxy)-3-phenylpropanoic acid] was run?
Its IC50 is 1.6e-08 M.

How did the IC50 turn out when `CCc1sc2ncnc(OC(Cc3ccccc3)C(=O)O)c2c1-c1ccc(OCCCc2ccncc2)c(Cl)c1C` [Example 399, (2R)-2-[((5Sa)-5-{3-chloro-2-methyl-4-[3-(pyridin-4-yl)propoxy]phenyl}-6-ethylthieno[2,3-d]pyrimidin-4-yl)oxy]-3-phenylpropanoic acid] was run?
The IC50 was 1.4e-08 M.

Which IC50 does the source give for `CCc1sc2ncnc(OC(Cc3ccccc3)C(=O)O)c2c1-c1ccc(OCCCn2ccnc2)c(Cl)c1C` [Example 403, (2R)-2-[((5Sa)-5-{3-chloro-4-[3-(1H-imidazol-1-yl)propoxy]-2-methylphenyl}-6-ethylthieno[2,3-d]pyrimidin-4-yl)oxy]-3-phenylpropanoic acid] here?
Its IC50 is 1.4e-08 M.

With `CCc1sc2ncnc(OC(Cc3ccccc3)C(=O)O)c2c1-c1ccc(OCCCO)c(Cl)c1C` [Example 405, (2R)-2-({(5Sa)-5-[3-chloro-4-(3-hydroxypropoxy)-2-methylphenyl]-6-ethylthieno[2,3-d]pyrimidin-4-yl}oxy)-3-phenylpropanoic acid] as the compound, how does the IC50 read?
Its IC50 is 7.4e-09 M.

How did the IC50 turn out when `CCc1sc2ncnc(OC(Cc3ccccc3)C(=O)O)c2c1-c1ccc(OCCN(C)C)cc1C` [Example 409, (2R)-2-[((5Sa)-5-{4-[2-(dimethylamino)ethoxy]-2-methylphenyl}-6-ethylthieno[2,3-d]pyrimidin-4-yl)oxy]-3-phenylpropanoic acid] was run?
Its IC50 is 2e-07 M.

`CCc1sc2ncnc(OC(Cc3ccccc3)C(=O)O)c2c1-c1ccc(OCCN(C)C)cc1C` [Example 410, (2R)-2-[((5Ra)-5-{4-[2-(dimethylamino)ethoxy]-2-methylphenyl}-6-ethylthieno[2,3-d]pyrimidin-4-yl)oxy]-3-phenylpropanoic acid] was tested. Which IC50 did it give?
The IC50 was 2.2e-06 M.

`CCc1sc2ncnc(OC(Cc3ccccc3)C(=O)O)c2c1-c1ccc(OCCN2CCN(C)CC2)cc1C` [Example 416, (2R)-2-[(6-ethyl-(5Ra)-5-{2-methyl-4-[2-(4-methylpiperazin-1-yl)ethoxy]phenyl}thieno[2,3-d]pyrimidin-4-yl)oxy]-3-phenylpropanoic acid] was tested. Which IC50 did it give?
The IC50 was 7e-07 M.

With `CCc1sc2ncnc(OC(Cc3ccccc3)C(=O)O)c2c1-c1ccc(OCCN2CCN(C)CC2)cc1C` [Example 417, (2R)-2-[(6-ethyl-(5Sa)-5-{2-methyl-4-[2-(4-methylpiperazin-1-yl)ethoxy]phenyl}thieno[2,3-d]pyrimidin-4-yl)oxy]-3-phenylpropanoic acid] as the compound, how does the IC50 read?
The IC50 was 1.5e-07 M.

`CCc1sc2ncnc(OC(Cc3ccccc3)C(=O)O)c2c1-c1ccc(OCCO)c(Cl)c1C` [Example 423, (2R)-2-({(5Sa)-5-[3-chloro-4-(2-hydroxyethoxy)-2-methylphenyl]-6-ethylthieno[2,3-d]pyrimidin-4-yl}oxy)-3-phenylpropanoic acid] was tested. Which IC50 did it give?
Its IC50 is 5.3e-08 M.

`CCc1sc2ncnc(OC(Cc3ccccc3)C(=O)O)c2c1-c1ccc(OCCOC)c(Cl)c1C` [Example 424, (2R)-2-({(5Sa)-5-[3-chloro-4-(2-methoxyethoxy)-2-methylphenyl]-6-ethylthieno[2,3-d]pyrimidin-4-yl}oxy)-3-phenylpropanoic acid] was tested. Which IC50 did it give?
The IC50 was 9.6e-08 M.

For `CCc1sc2ncnc(OC(Cc3ccccc3)C(=O)O)c2c1-c1ccc(OCCOCCOC)c(Cl)c1C` [Example 425, (2R)-2-[((5Sa)-5-{3-chloro-4-[2-(2-methoxyethoxy)ethoxy]-2-methylphenyl}-6-ethylthieno[2,3-d]pyrimidin-4-yl)oxy]-3-phenylpropanoic acid], which IC50 is on record?
Its IC50 is 9.6e-09 M.

With `CCc1sc2ncnc(OC(Cc3ccccc3)C(=O)O)c2c1-c1cc([N+](=O)[O-])c(O)c(Cl)c1C` [Example 426, (2R)-2-{[(5Sa)-5-(3-chloro-4-hydroxy-2-methyl-5-nitrophenyl)-6-ethylthieno[2,3-d]pyrimidin-4-yl]oxy}-3-phenylpropanoic acid] as the compound, how does the IC50 read?
Its IC50 is 4.6e-09 M.

`CCc1sc2ncnc(OC(Cc3ccccc3)C(=O)O)c2c1-c1cc(Br)c(O)c(Cl)c1C` [Example 427, (2R)-2-{[(5Sa)-5-(5-bromo-3-chloro-4-hydroxy-2-methylphenyl)-6-ethylthieno[2,3-d]pyrimidin-4-yl]oxy}-3-phenylpropanoic acid] was tested. Which IC50 did it give?
The IC50 was 4.7e-09 M.

Same assay, conditions: partial inhibitors; @ 10 uM test compound

Which “percentage fluorescence polarisation inhibition, Mcl-1 FP” value does the source give for `CCc1sc2ncnc(O[C@H](Cc3ccccc3)C(=O)O)c2c1-c1ccc(OCCN2CCOCC2)c(Cl)c1C` [Example 421, (2R)-2-[((5Ra)-5-{3-chloro-2-methyl-4-[2-(morpholin-4-yl)ethoxy]phenyl}-6-ethylthieno[2,3-d]pyrimidin-4-yl)oxy]-3-phenylpropanoic acid] here?
The value was 38.1% @ 10 uM.
